Test results reported in patent US20030203969A1, “Pharmaceutically active aromatic guanylhydrazones” (priority 2000, published 2003).

Experiments:
[1] = tested on: omni-drug-resistant HIV-1; experiment: Inhibition of omni-drug-resistant HIV-1 in PM1 cells (p24); type: cell-based
Procedure: PM1 cells were infected with an “omni-drug-resistant HIV-1” (recombinant HIV-1 NL4-3 in which the Protease gene and the 5′ part of the Reverse Transcriptase gene was replaced by the corresponding sequences from a omni-drug-resistant clinical isolate, resistant to all currently available anti-HIV drugs. Infected cells were incubated with Compound No. 4 at a concentration of 250, 500 and 1000 nM or DMSO (control). The culture medium was changed every third day. Cell viability (Trypan-blue staining), cell counts and p24 levels were determined at day 6 and 12.
At day 12 of infection, the virus replicated vigorously in untreated cultures. Numbers describe percent inhibition of HIV-1 replication as compared to control experiments.

[2] = tested on: PI-resistant HIV-1; experiment: Inhibition of multiple anti-retroviral drug resistant HIV-1 strains: PI-resistant; type: cell-based
Procedure: In addition, various different “types” of multiple anti-retroviral drug resistant HIV-1 strains were also tested: […]

[3] = tested on: HIV; experiment: Relevant HIV cellular systems (summary statements); type: cell-based
Source text: Thus another aspect of the present invention is directed to the use of the compounds of the general formula (I) and/or pharmaceutically active salts as inhibitors of elF-5A activation and HIV replication.
The present invention therefore provides a genus of guanylhydrazone-substituted compounds that are useful as inhibitors of HIV-1, HIV-2, HTLV-I as well as for treating diseases associated with those viruses.

[4] = biological target: T1, deoxyhypusine synthase (DHS) (Homo sapiens, UniProt P49366); experiment: In vitro DHS screening assay (hypusine formation on eIF-5A); type: biochemical
T1 construct: made in house; host or cells: E. coli BL21 (DE3), pGex vector
T1 sequence (P49366 1-369): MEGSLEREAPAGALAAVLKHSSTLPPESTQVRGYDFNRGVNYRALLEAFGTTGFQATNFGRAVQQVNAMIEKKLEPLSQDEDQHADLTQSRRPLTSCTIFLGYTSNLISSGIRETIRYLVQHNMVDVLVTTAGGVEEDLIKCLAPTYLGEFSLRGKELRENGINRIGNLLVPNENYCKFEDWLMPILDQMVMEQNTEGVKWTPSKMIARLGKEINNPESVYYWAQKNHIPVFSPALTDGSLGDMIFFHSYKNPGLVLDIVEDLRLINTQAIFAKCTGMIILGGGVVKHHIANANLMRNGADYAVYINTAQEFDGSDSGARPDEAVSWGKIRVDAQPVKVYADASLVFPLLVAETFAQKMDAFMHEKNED

[5] = tested on: BCBL-1 cells; experiment: Compound toxicity in BCBL-1 cells (Cell Titer Aqueous One); type: cell-based, human; conditions: read-out: TC50 (the source's name)
Procedure: The human BCBL-1 cell line is available through the AIDS Reference and Reagent Program (Cat.No. 3233). This cell line was derived from a body cavity-based lymphoma latently infected with HHV-8. Culturing these cells in the presence of phorbol ester induces a lytic infection cycle, resulting in the release of viral particles into the medium. Compound efficacy in this proposed assay is determined using TaqMan PCR technology, and compound toxicity is measured by addition of Promega's Cell Titer Aqueous One Solution (metabolic dye).
12. Duplicate plates will be set up plating media in place of TPA for evaluation of compound toxicity.
12. Twenty microliters of Cell Titer Aqueous One Solution (Promega) will be added to each well of the toxicity plates. Plates will be incubated at 37° C. in a humidified CO2 incubator for 4 hours or until sufficient color development has occurred. Plates will be read on a VMax microtiter plate reader at a wavelength of 490/650 nm. Toxicity of the test compound will be determined by comparing the optical density of test wells with that of control wells.

[6] = tested on: herpes simplex virus type 1 (strain HF); experiment: HSV-1 cytopathic effect (CPE) inhibition assay in Vero cells (MTS); type: cell-based
Source text: A virus-induced cytopathic effects (CPE)-inhibition assay procedure using Promega's Cell Titer Aqueous One Solution (MTS, metabolic dye) is employed to evaluate compounds for antiviral activity against herpes simplex virus type 1 (strain HF) in Vero cells (African green monkey cells, ATCC Cat. No. CCL-81). Vero cells are pregrown in 96-well tissue culture plates using Dulbecco's Modified Eagle's Medium (DMEM) supplemented with 10% heat-inactivated fetal bovine serum (FBS), L-glutamine, penicillin, and streptomycin. To each of the replicate cell cultures is added 50 μl of the test drug solution and 50 μl of virus suspension. Cell controls containing medium alone, virus-infected controls containing medium and virus, drug cytotoxicity controls containing medium and each drug concentration, reagent controls containing culture medium only (no cells), and drug calorimetric controls containing drug and medium (no cells) are run simultaneously with the test samples. The plates are incubated at 37° C. in a humidified atmosphere containing 5% CO2 until maximum CPE is observed in the untreated virus control cultures (Day 5). CPE inhibition is determined by a dye (MTS) uptake procedure. […] The purple color of the MTS formazan is then measured spectrophotometrically at 490/650 nm. […]

CC(=NNC(=N)N)c1cc(NC(=O)CCCCCCCCC(=O)Nc2cc(C(C)=NNC(=N)N)cc(C(C)=NNC(=N)N)c2)cc(C(C)=NNC(=N)N)c1 [Compound 4, N,N′-bis (3,5-diacetylphenyl) decane diamide tetrakis (amidinohydrazone)]
percent inhibition of HIV-1 replication as compared to control ([1]; omni-drug-resistant HIV-1, 0.25 μM, d6): 15% | percent inhibition of HIV-1 replication as compared to control ([1]; omni-drug-resistant HIV-1, 0.25 μM, d12): 64% | percent inhibition of HIV-1 replication as compared to control ([1]; omni-drug-resistant HIV-1, 0.5 μM, d6): 30% | percent inhibition of HIV-1 replication as compared to control ([1]; omni-drug-resistant HIV-1, 0.5 μM, d12): 95% | percent inhibition of HIV-1 replication as compared to control ([1]; omni-drug-resistant HIV-1, 1.0 μM, d6): 58% | percent inhibition of HIV-1 replication as compared to control ([1]; omni-drug-resistant HIV-1, 1.0 μM, d12): 97% | [%] inhibition of virus replication ([2]; PI-resistant HIV-1, 0.5 μM): 50% | [%] inhibition of virus replication ([2]; PI-resistant HIV-1, 1.0 μM): 95% | cellular toxicities at effective antiviral dosages ([3]; HIV cellular systems): without apparent cellular toxicities | inhibition of HIV replication ([3]; T-cell-tropic, macrophage-tropic, primary patient isolates, multidrug-resistant HIV strains): submicromolar range | inhibition of the hypusine formation on the elF-5A protein [4]: potent inhibitors | CC50 [5]: 78.9 µM | Comments ([6]; HSV-1, Vero cells): Active | IC50 ([6]; HSV-infected Vero cells, reduces the CPE by 50%): 1.56 µM
